Measured values reported in patent US20050136444A1 (priority 2003, published 2005).
“And” between values parts separate entries of the source, which are not always exact repeats. Equal values may be shown once. “Also recorded” adds a separate entry of the source. Where a name gives a salt, the structure may show the parent alone. Read-outs that look alike come from different tables or passages of the source.

Key:
[1] = target: T1, NPFF2b (Homo sapiens, UniProt Q9Y5X5); assay: cAMP assay in transiently transfected HEK-T cells, NPFF2; assay type: cell-based; conditions: for EC50: cAMP data, Table 2, HEK-T cells, read-out: NPFF2b pEC50 Mean (converted)
T1 construct: expressed in transfected cells; host or cells: HEK-T
T1 sequence (Q9Y5X5 103-522 limits assumed): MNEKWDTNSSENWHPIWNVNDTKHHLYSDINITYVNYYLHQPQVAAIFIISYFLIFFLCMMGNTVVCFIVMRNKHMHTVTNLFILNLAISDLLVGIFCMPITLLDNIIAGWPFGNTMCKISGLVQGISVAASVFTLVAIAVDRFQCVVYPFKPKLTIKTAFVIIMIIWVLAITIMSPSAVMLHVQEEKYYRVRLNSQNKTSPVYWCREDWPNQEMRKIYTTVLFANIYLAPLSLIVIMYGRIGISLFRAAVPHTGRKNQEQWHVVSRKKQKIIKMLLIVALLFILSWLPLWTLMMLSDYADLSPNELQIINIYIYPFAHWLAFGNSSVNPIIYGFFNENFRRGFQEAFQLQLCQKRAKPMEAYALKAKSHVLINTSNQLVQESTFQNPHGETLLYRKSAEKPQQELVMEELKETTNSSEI
Method: An assay was established for measuring cAMP in transiently transfected cells that takes advantage of the fact that most cells that are transfected with one gene, can be simultaneously transfected with other genes. Thus, the NPFF1 and NPFF2 receptors were transfected along with a Gs-coupled receptor (EP2) at a ratio of 5:1.
This set up was routinely used for the transfection of HEK-T cells with NPFF1 and NPFF2 receptors. […] Cells were incubated for 15 minutes at 37° C. At the end of incubation, cells were lysed and the remainder of the assay performed as per DiscoveRx protocol.
Cells were incubated for another 15 minutes at 37° C. following which the cells were lysed and processed as per kit protocol.

[2] = target: T2, NPFF2 (Homo sapiens, UniProt Q9Y5X5); assay: Receptor Selection and Amplification Technology (R-SAT) functional assay, NPFF2; assay type: cell-based; conditions: for NPFF2b % Efficacy Mean: Hydrochloride
T2 construct: expressed in transfected cells; host or cells: NIH3T3
T2 sequence (Q9Y5X5 103-522): as the sequence (Q9Y5X5 103-522 limits assumed) above
Method in brief: (§1)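 NIH3T3 cells transiently transfected for 16-20 h with receptor and β-galactosidase plasmids, then grown with compound for five days at 5% CO2. Functional response read as β-galactosidase activity with ONPG substrate, colorimetric absorbance at 420 nm.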

[3] = system: rats; assay: Observed behaviors / side effects after systemic administration; assay type: in vivo, rat
Method: These behaviors typically precede “barrel-rolling” seizures.
These effects persisted between 15 and 20 minutes. These effects were not observed in rats that received doses less than 10 mg/kg.
These effects persisted between 15 and 20 minutes and were shown by both sham-operated and SNL rats. These effects were not observed in rats that received doses less than 10 mg/kg. [drawing 22]
However, these effects were more robust and of longer duration (60-90 min).
These effects persisted between 60 and 90 minutes and were shown by both sham-operated and SNL rats. These effects were not observed in rats that received doses less than 10 mg/kg. [drawing 23]
A model of neuropathic pain was created in rats by tight ligation of the L5 and L6 spinal nerves. […] Rats were then treated with various doses of dPQR (3, 10 and 30 mg/kg, i.p.) and paw withdrawal thresholds were tested across a period of 3 hours.
A model of neuropathic pain was created in rats by tight ligation of the L5 and L6 spinal nerves. […] Rats were then treated with various doses of Compound 3099 (1, 3 and 10 mg/kg, i.p.) and paw withdrawal thresholds were tested across a period of 3 hours.
In an attempt to increase the efficacy of Compound 3099 in the SNL model, we administered a dose of 30 mg/kg (i.p.) to SNL rats. […] Further, these behaviors were also transient, such that, by the end of the testing period these effects appeared to have resolved.

[4] = target: NPFF1 (Homo sapiens, UniProt Q9GZQ6); assay: Receptor Selection and Amplification Technology (R-SAT) functional assay, NPFF1; assay type: cell-based; set-up: expressed in transfected cells; host or cells: NIH3T3; conditions: for NPFF1 % Efficacy Mean: Hydrochloride
NPFF1, sequence (Q9GZQ6 whole entry, species assumed): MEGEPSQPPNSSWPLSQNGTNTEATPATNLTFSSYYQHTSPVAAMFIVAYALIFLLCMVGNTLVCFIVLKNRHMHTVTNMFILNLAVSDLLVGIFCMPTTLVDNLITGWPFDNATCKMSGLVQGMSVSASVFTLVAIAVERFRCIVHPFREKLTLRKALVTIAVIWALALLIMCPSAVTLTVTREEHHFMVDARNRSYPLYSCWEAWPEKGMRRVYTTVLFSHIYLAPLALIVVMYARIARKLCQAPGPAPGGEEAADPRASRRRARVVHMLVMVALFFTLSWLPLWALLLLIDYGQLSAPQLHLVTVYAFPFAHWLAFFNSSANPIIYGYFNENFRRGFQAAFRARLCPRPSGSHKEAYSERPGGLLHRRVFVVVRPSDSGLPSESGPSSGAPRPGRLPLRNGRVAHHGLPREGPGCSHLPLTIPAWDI
Method in brief: as §1

[5] = system: L5/L6 SNL-induced Tactile Allodynia; assay: L5/L6 SNL-induced Tactile Allodynia; assay type: in vivo, rat; conditions: for effect on L5/L6 SNL-induced tactile allodynia (paw withdrawal thresholds): various doses; for sensitivity to non-noxious mechanical stimulation in sham-operated rats: 10 mg/kg (1045, 2616), 30 mg/kg (dPQR)
From the text: This model of neuropathic pain was developed by Kim and Chung (Kim S H, Chung J M., “An experimental model for peripheral neuropathy produced by segmental spinal nerve ligation in the rat,” Pain, 1992 September; 50(3):355-63). This model requires the ligation of the L5 and L6 spinal nerves between the spinal cord and the entry point into the sciatic nerve. Seven to fourteen days following SNL surgery rats will be reassessed for their response thresholds to mechanical stimuli. For the assessment of paw withdrawal thresholds rats were allowed to acclimate within plexiglass enclosures for approximately 20 min. A series of calibrated von Frey filaments (1.56-15.0 g, logarithmically spaced) were applied to the plantar aspect of the injured hind paw until a response was elicited. Paw withdrawal thresholds to probing were determined according to a previously described method (Chaplan S R, Bach F W, Pogrel J W, Chung J M, Yaksh T L., “Quantitative assessment of tactile allodynia in the rat paw,” J Neurosci Methods, 1994 July;53(1):55-63). Paw withdrawal thresholds were determined to the nearest 0.1 g before surgery, then before and at multiple time points following compound administration. A significant reduction in the paw withdrawal threshold was interpreted as the presence of tactile allodynia.
In order to study the endogenous activity of the NPFF system following injury to peripheral nerves, the activity of a FF1 receptor antagonist, dPQR, was assessed in a model of neuropathic pain. In this model, the L5 and L6 spinal nerves between the spinal cord and the entry point into the sciatic nerve were ligated (Kim & Chung, 1992). Seven to fourteen days following SNL surgery rats were reassessed for their response thresholds to mechanical stimuli. For the assessment of paw withdrawal thresholds rats were allowed to acclimate within plexiglass enclosures for approximately 20 min. A series of calibrated von Frey filaments (1.56-15.0 g, logarithmically spaced) were applied to the plantar aspect of the injured hind paw until a response was elicited. Paw withdrawal thresholds to probing were determined according to a previously described method (Chaplan et al., 1994). Paw withdrawal thresholds were determined to the nearest 0.1 g before surgery, then before and at multiple time points following compound administration. A significant reduction in the paw withdrawal threshold was interpreted as the presence of tactile allodynia.
A model of neuropathic pain was created in rats by tight ligation of the L5 and L6 spinal nerves. […] Rats were then treated with various doses of Compound 1045 (1, 3 and 10 mg/kg, i.p.) and paw withdrawal thresholds were tested across a period of 2 hours.

[6] = NPFF2b pEC50 Mean, R-SAT data, Table 2, multiple entries = different batches
[7] = R-SAT data, Table 2, multiple entries = different batches
[8] = R-SAT data, Table 2, multiple entries = different batches, read-out: NPFF2b % Efficacy Mean
[9] = R-SAT data, Table 2, multiple entries = different batches, read-out: NPFF1 % Efficacy Mean
[10] = R-SAT, Table 1, Efficacy is relative to endogenous ligand, read-out: NPFF2 % Efficacy
[11] = R-SAT, Table 1, Efficacy is relative to endogenous ligand, read-out: NPFF1 % Efficacy

Which Emax ([1]; HEK-T cell, read-out: NPFF2b % Efficacy Mean) does the source give for NC(N)=NN=Cc1ccc(-c2ccccc2C(F)(F)F)o1 (racemic) [Compound 2616, 1-[(5-(2-(Trifluoromethyl)phenyl)-furan-2-yl)-methyleneamino]guanidine Hydrochloride] here?
The Emax was 114%.

What about the EC50 [1] of the same compound?
The EC50 was 3.16 µM.

And the EC50 [2, 6]?
The EC50 was 100 nM.

What about the “NPFF2b % Efficacy Mean” value [2, 7] of the same compound?
Its value is 80.4% and 72.9%.

And the Emax [2, 8]?
Its Emax is 63%.

And the “side effects at doses less than 10 mg/kg” value ([3]; rat, in vivo)?
The value was “not observed”.

And the “duration of side effects” value ([3]; rat, in vivo, ip, 10 mg/kg)?
The value was 60 to 90 min.

What about the side effects observed ([3]; rat, in vivo, ip, 10 mg/kg) of the same compound?
The side effects observed was “demonstrated writhing behavior and appeared lethargic”.

And the EC50 [4]?
Its EC50 is 39.8 nM.

And the “NPFF1 % Efficacy Mean” value [4, 7]?
The value was 66.3% and 52.1%.

What about the Emax [4, 9] of the same compound?
The Emax was 55%.

And the EC50 ([4]; R-SAT data, Table 2, multiple entries = different batches, read-out: NPFF1 pEC50 Mean (converted))?
Its EC50 is 1260 nM and 316 nM.

What about the “effect on L5/L6 SNL-induced tactile allodynia (paw withdrawal thresholds)” value ([5]; SNL rats, i.p., Hydrochloride) of the same compound?
Its value is “either demonstrate very little efficacy or potentiate tactile allodynia; also recorded: dose-related potentiation of tactile allodynia”.

What about the “sensitivity to non-noxious mechanical stimulation in sham-operated rats” value ([5]; i.p., Hydrochloride) of the same compound?
The value was “produced tactile allodynia in sham-operated rats; also recorded: significant reduction in the paw withdrawal thresholds of sham-operated rats”.

What does the source list for Cl.N=C(N)N/N=C/c1ccc(Br)c(Br)c1 [Compound 3093, 1-(3,4-Dibromobenzylideneamino)guanidine Hydrochloride]?
EC50 [1]: 6.31 µM; NPFF2b % Efficacy Mean [2, 7]: 89.9%; Emax [2, 8]: 85.3%; EC50 ([2]; R-SAT data, Table 2, multiple entries = different batches, read-out: NPFF2b pEC50 Mean (converted)): 631 nM and 1260 nM; Emax [2, 10]: 89%; EC50 ([2]; R-SAT, Table 1, NA = No activity detectable at the highest dose tested (20 μM), read-out: NPFF2 pEC50 (converted)): 1580 nM; behaviors observed (typically precede barrel-rolling seizures) ([3]; rat, in vivo, ip, 30 mg/kg): immobility and staring, ataxia, splayed hind limbs, body swaying, lying on one side with spastic limb abduction and body distortions; NPFF1 % Efficacy Mean [4, 7]: 11.7%; Emax [4, 9]: 10.2%; Emax [4, 11]: 11%; time of peak effect after administration ([5]; SNL rats, i.p.): 30 min; effect on L5/L6 SNL-induced tactile allodynia (paw withdrawal thresholds) ([5]; SNL rats, i.p., Hydrochloride): dose-dependently reverse tactile allodynia; also recorded: dose-related reversal of tactile allodynia; calculated A50, reversal of tactile allodynia ([5]; SNL rats, i.p., 95% CI): 6.2 mg

Which EC50 [2, 6] does the source give for NC(N)=N/N=C/c1ccc(Cl)c(Cl)c1 [Compound 1045, 1-(3,4-Dichlorobenzylideneamino)guanidine Hydrochloride] here?
Its EC50 is 794 nM and 501 nM.

And the EC50 ([2]; NPFF2 pEC50, R-SAT, Table 1, NA = No activity detectable at the highest dose tested (20 μM))?
Its EC50 is 794 nM.

And the “NPFF2b % Efficacy Mean” value [2, 7]?
Its value is 55.2%.

What about the Emax [2, 8] of the same compound?
The Emax was 63.8%.

And the Emax [2, 10]?
The Emax was 64%.

And the “duration of side effects” value ([3]; SNL rats, 30 mg/kg)?
Its value is 60 to 90 min.

What about the “side effects at doses less than 10 mg/kg” value ([3]; rat, in vivo) of the same compound?
The value was “not observed”.

And the “new side effects noted” value ([3]; rat, in vivo, 30 mg/kg)?
The value was “ptosis, shuffling/stomping and biting of forlimbs and hindlimbs”.

What about the side effects observed ([3]; rat, in vivo, ip, 10 mg/kg) of the same compound?
The side effects observed was “demonstrated writhing behavior and appeared lethargic”.

What about the Emax [4, 9] of the same compound?
The Emax was 6.3%.

And the Emax [4, 11]?
Its Emax is 17%.

What about the “efficacy against SNL-induced tactile allodynia at 30 mg/kg” value ([5]; SNL rats, 30 mg/kg) of the same compound?
The value was “initially efficacious at the 30 min time-point”.

And the “paw withdrawal thresholds by 60 min and until the end of the testing session” value ([5]; SNL rats, 30 mg/kg, suggests potentiation of tactile allodynia)?
Its value is “significantly reduced the paw withdrawal thresholds to levels below those obtained in SNL vehicle-treated rats”.

And the “maximum efficacy, reversal of tactile allodynia” value ([5]; SNL rats, i.p.)?
The value was 37.9%.

What about the “sensitivity to non-noxious mechanical stimulation in sham-operated rats” value ([5]; i.p.) of the same compound?
Its value is “did not significantly alter sensitivity to non-noxious mechanical stimulation”.
